In patent publication US20180116990A1, “COMPOSITION OF BIOACTIVE LIPIDS AND METHODS OF USE THEREOF” (UND Life Sciences, LLC, priority 2016, published 2018):
Like-named read-outs stand apart in the source and are kept apart here.

Tests used:
[1] = tested on: experimental animals with DR, AMD, DME, retinopathy of prematurity; experiment: intravitreal injection in experimental animals with DR, AMD, DME, retinopathy of prematurity (Examples 5-7, FIG. 16); type: in vivo; details: for regression of DR, AMD, DME, retinopathy of prematurity: all doses
Excerpt: The degree of DR in control is taken as 100% which received only the vehicle. All bioactive lipids are able to suppress/reverse/arrest DR to a significant degree. […] Similar results were obtained with AMD, DME and retinopathy of prematurity. AVA=Anti-VEGF antibody; LRPM=Lipoxin A4+resolvin+protectin+maresin; AVA+LRPM=Anti-VEGF antibody+Lipoxin A4+resolvin+protectin+maresin.
[…] with DR, AMD, DME, retinopathy of prematurity (each group consisting of 10 animals: total 40 animals) were treated by direct intravitreal injection of LXA4 free acid form of composition according the examples 1-4 in doses ranging from 10.0 μg/day once in a week for 4 weeks.
In another study, this was similar to the study given in Example 5, except that in this instance different bioactive lipids singly and in combination were tested. Thus, in this study, experimental animals received LXA4, resolvin E1, resolvin D1, protectin D1, maresin 1 or a combination of LXA4+resolvin E1+protectin D1+maresin 1 (in the ratio of 1:1:1:1) were given with appropriate control groups. In this study, different doses of bioactive lipids were used either 5 ng, 10 ng, 15 ng, 20 ng, 50 ng, 100 ng, 200 ng, 500 ng, 1 μg, 5 μg or ranging from 10.0 μg to 100.0 μg per week for 4 weeks; once in 4 weeks for 3 months.
(§1) In another study, this was similar to the study given in Examples 5 and 6, except that in this instance different bioactive lipids singly and in combination were tested in combination with or without anti-VEGF antibody. Thus, in this study, experimental animals received LXA4, resolvin E1, resolvin D1, protectin D1, maresin 1 or a combination of LXA4+resolvin E1+protectin D1+maresin 1 (in the ratio of 1:1:1:1)±anti-VEGF antibody were given with appropriate control groups. In this study, dose of bioactive lipids used was 5 ng, 10 ng, 15 ng, 20 ng, 50 ng, 100 ng, 200 ng, 500 ng, 1 μg, 5 μg, or 25.0 μg once in 4 weeks for 3 months. […] A summary of the results obtained with bioactive lipids on angiogenesis (FIG. 10) in vitro; on STZ-induced cytotoxicity to vascular endothelial cells (FIG. 11); on LPS-induced IL-6 and TNF-α secretion by human macrophages in vitro (FIG. 12); on PGE2 and VEGF secretion by LPS stimulated ARPE cells in vitro (FIG. 13); leukocyte migration and adherence to endothelial cells in vitro (FIG. 14); and BDNF secretion by ARPE cells stimulated by LPS (FIG. 15) are given in respective figures.

neovascularization = details: retina; literature; cited from earlier work
[2] = tested on: adult human retinal pigment epithelial cells, ARPE 19 cells; experiment: production of BDNF by ARPE 19 cells exposed to LPS (FIG. 15); type: cell-based; details: saline control taken as 100%
Procedure: C=Saline control taken as 100%; LPS=LPS-induced decrease in BDNF production; RSv=Resolvin E1; PRt=Protectin D1; MaR=Maresin; L+R+P+M=LXA4=resolvin D1+Protectin D1+Maresin in 1:1:1:1 ratio.
as §1

[3] = tested on: vascular endothelial cells; experiment: STZ-induced cytotoxic action on vascular endothelial cells in vitro (FIG. 11); type: cell-based; details: STZ cytotoxicity taken as 100%
Procedure: C=Control; STZ=Streptozotocin-induced cytotoxicity taken as positive control taken as 100%; RSv=Resolvin E1; PRt=Protectin D1; MaR=Maresin; L+R+P+M=LXA4=resolvin D1+Protectin D1+Maresin in 1:1:1:1 ratio.
as §1

[4] = tested on: VEGF-induced angiogenesis; experiment: effect of bioactive lipids on angiogenesis induced by VEGF in vitro (FIG. 10); type: cell-based; details: positive test control taken as 100%
Procedure: C=Control; T=positive test control taken as 100%; RSv=Resolvin E1; PRt=Protectin D1; MaR=Maresin; L+R+P+M=LXA4=resolvin D1+Protectin D1+Maresin in 1:1:1:1 ratio.
as §1

[5] = tested on: experimental animals with DR, AMD, DME, retinopathy of prematurity; experiment: intravitreal injection in experimental animals with DR, AMD, DME, retinopathy of prematurity (Examples 5-7, FIG. 16); type: in vivo; details: Example 5; 5 ng to 100.0 μg per week for 4 weeks; once in 4 weeks for 3 months; all doses tested
[6] = tested on: leukocyte migration and adherence; experiment: leukocyte migration and adherence stimulated by LPS in vitro (FIG. 14); type: cell-based; details: LPS positive control taken as 100%
Procedure: C=Control; LPS=positive control taken as 100%; RSv=Resolvin E1; PRt=Protectin D1; MaR=Maresin; L+R+P+M=LXA4=resolvin D1+Protectin D1+Maresin in 1:1:1:1 ratio.
as §1

[7] = tested on: adult human retinal pigment epithelial cells, ARPE 19 cells; experiment: production of PGE2 and VEGF by ARPE 19 cells exposed to LPS (FIG. 13); type: cell-based; details: LPS positive control taken as 100%
Procedure: C=Control; LPS=Positive control taken as 100%; RSv=Resolvin E1; PRt=Protectin D1; MaR=Maresin; L+R+P+M=LXA4=resolvin D1+Protectin D1+Maresin in 1:1:1:1 ratio.
as §1

human macrophage cells = experiment: production of IL-6 and TNF-α by human macrophage cells stimulated with LPS in vitro (FIG. 12); type: cell-based; details: LPS stimulated increase taken as 100%
Procedure: C=Control; LPS stimulated increase in IL-6 and TNF-α production taken as 100%; RSv=Resolvin E1; PRt=Protectin D1; MaR=Maresin; L+R+P+M=LXA4=resolvin D1+Protectin D1+Maresin in 1:1:1:1 ratio.
as §1

[8] = production of other bioactive lipids (observation)
Excerpt: Thus, one bioactive lipid enhances the production and action of other bioactive lipids. In a surprise observation, inventor noted that LXA4 and other bioactive lipids function as autocrine factors enhancing their own production.

ARPE 19 cells = details: LPS induced ARPE 19 cells, cited from earlier work
[9] = effect of ethanol and albumin on stability of LXA4 in solution in vitro (Example 8, FIGS. 17-18); type: physicochemical
Procedure: C=Control (100%); Concentration of LXA4 used in the test system is 10 μg to which different concentrations of albumin is added and after a specific period of incubation the concentration of LXA4 present in the solution is tested. It is seen that when the % of albumin exceeded 0.01%, the stability of LXA4 is decreased. […] The test system used: LXA4 is dissolved in 0.01% ethanol (pH 7.4) at 37° C. to which different concentrations of albumin is added and at the end of incubation time the concentration of LXA4 present is tested to know whether albumin would influence the stability of LXA4 in the solution.
Concentration of LXA4 tested 100 ng. […] C=Control (100%) (expected). Various doses of albumin were added to LXA4 solution in saline/PBS/ethanol and the stability of LXA4 was tested at the end of different periods of incubation in days. Results were best when ethanol concentration in the solution is between 0.01 to 0.0001% and albumin concentration is between 0.01 to 0.0001%.
The effect of albumin as an exemplary stabilizing agent in compositions of bioactive lipids was tested as follows: To 250 ng of LXA4 dissolved in a solution of saline/PBS with or without 0.01% ethanol was added different concentrations of albumin and after a specific period of incubation the concentration of LXA4 present in the solution was tested.

[10] = Example 6, lipids singly and in combination, 5 ng to 100.0 μg per week for 4 weeks, once in 4 weeks for 3 months
[11] = Example 7, with or without anti-VEGF antibody, 5 ng to 25.0 μg once in 4 weeks for 3 months

| Molecule | regression of DR, AMD, DME, retinopathy of prematurity [1, 10] | regression of DR, AMD, DME, retinopathy of prematurity [1, 11] | protection against neovascularization (neovascularization) | production of BDNF [2] | further results |
| --- | --- | --- | --- | --- | --- |
| CC/C=C\C[C@H](O)/C=C/C=C\C=C\C=C\[C@@H](O)[C@@H](O)C/C=C\CCC(=O)O [resolvin D1] | substantial regression | substantial regression | protected against neovascularization | – | – |
| CC/C=C\C[C@H](O)\C=C/C=C/C=C/[C@H](O)C/C=C\C/C=C\CCC(=O)O [Protectin D1, protectin D1] | substantial regression | substantial regression | – | more potent than LXA4 | – |
| CC/C=C\C[C@H](O)\C=C/C=C/C=C/[C@H](O)C/C=C\C/C=C\CCC(=O)O [Neuroprotectin D1, reference compound] | – | – | protected against neovascularization | – | – |
| CC[C@@H](O)/C=C/C=C\C[C@@H](O)/C=C/C=C/C=C\[C@@H](O)CCCC(=O)O [Resolvin E1, resolvin E1] | substantial regression | substantial regression | protected against neovascularization | more potent than LXA4 | – |
| CCCCC[C@H](O)/C=C/C=C\C=C\C=C\[C@@H](O)[C@@H](O)CCCC(=O)O [LXA4, lipoxin A4] | substantial regression | substantial regression | – | – | cytoprotective action against STZ-induced cytotoxic action [3]: most effective; suppression of VEGF-induced angiogenesis [4]: most effective; regression of DR, AMD, DME, retinopathy of prematurity [5]: substantial regression; leukocyte migration and adherence [6]: most potent; reduction in the degree of DR, AMD, DME, and retinopathy of prematurity ([1]; Example 5, direct intravitreal injection, 10.0 μg/day once in a week for 4 weeks, all 40 animals): significant reduction; production of PGE2 and VEGF [7]: most potent; production of IL-6 and TNF-α (human macrophage cells): most effective; production of other bioactive lipids such as resolvins, protectins and maresins [8]: enhanced; IL-6 levels (ARPE 19 cells; 10 nmol/L, p=0.036): decreased; stability of LXA4 ([9]; Example 8, 250 ng LXA4 in saline/PBS, albumin between 0.01 to 0.0001% compared to LXA4 concentration): optimum; stability of LXA4 ([9]; Example 8, ratio LXA4/albumin 0.01% to 0.0001%, in the presence of 0.01% ethanol): more stable; stability of LXA4 ([9]; FIG. 17, albumin between 0.01% to 0.001%, LXA4 10 μg in 0.01% ethanol, pH 7.4, 37° C.): stable and active; stability of LXA4 ([9]; FIG. 17, albumin exceeded 0.01%, LXA4 10 μg in 0.01% ethanol, pH 7.4, 37° C.): decreased; stability of LXA4 at different times ([9]; FIG. 18, LXA4 100 ng in saline/PBS/ethanol, ethanol 0.01 to 0.0001% and albumin 0.01 to 0.0001%, incubation in days): best |
| CC/C=C\C/C=C\C[C@H](O)\C=C/C=C/C=C/[C@H](O)C/C=C\CCC(=O)O [Maresin, maresin 1] | substantial regression | substantial regression | – | more potent than LXA4 | – |
| BDNF: brain-derived neurotropic factor (BDNF), a neurotrophin (protein, UniProt P23560 19-247, looked up) Neurotrophic factor BDNF …: APMKEANIRGQGGLAYPGVRTHGTLESVNGPKAGSRGLTSLADTFEHVIEELLDEDQKVRPNEENNKDADLYTSRVMLSSQVPLEPPLLFLLEEYKNYLDAANMSMRVRRHSDPARRGELSVCDSISEWVTAADKKTAVDMSGGTVTVLEKVPVSKGQLKQYFYETKCNPMGYTKEGCRGIDKRHWNSQCRTTQSYVRALTMDSKKRIGWRFIRIDTSCVCTLTIKRGR | – | – | – | – | IL-6 levels (ARPE 19 cells; 500 pg, p=0.0002): decreased |
